Results as given in US10821079B2, “PKC activators and combinations thereof” (Cognitive Research Enterprises, Inc., priority 2011, dated 2020).
Like-named read-outs stand apart in the source and are kept apart here.

Key:
protein kinase C = details: (−)-enantiomer; read-out: EC50 (potency); cited from earlier work
PKC [1] = biological target: T1, PKC; details: cited from earlier work
T1 construct: Ki

NCI 60 cell line screen = details: cited from earlier work
PKCα [2] = biological target: T2, PKCα (Homo sapiens, UniProt P17252); details: cited from earlier work
PKC-ε [3] = assay: PKC-ε level in primary neurons (immunofluorescence, Western Blot); type: cell-based, rat; details: 5 μM inhibitor
Protocol: Cells were harvested in homogenizing buffer containing 10 mM Tris-Cl (pH 7.4), 1 mM PMSF (phenylmethylsulfonyl fluoride), 1 mM EGTA, 1 mM EDTA, 50 mM NaF, and 20 μM leupeptin and were lysed by sonication. The homogenate was centrifuged at 100,000×g for 15 min at 4° C. to obtain the cytosolic fraction (supernatant) and membrane (pellet). The pellet was resuspended in the homogenizing buffer by sonication. Protein concentration was measured using the Coomassie Plus (Bradford) Protein Assay kit (Pierce, USA). Following quantification, 20 μg of protein from each sample was subjected to SDS-PAGE analysis in 4-20% gradient Tris-Glycine gel (Invitrogen, USA). The separated protein was then transferred to nitrocellulose membrane. The membrane was blocked with BSA at room temperature for 15 min and was incubated with primary antibody over night at 4° C. After the incubation, it was washed three times with TBS-T (Tris Buffered saline-Tween 20) and further incubated with alkaline phosphatase conjugated secondary antibody (Jackson Immunoresearch Laboratories, USA) at 1:10,000 dilution for 45 min. The membrane was finally washed three times with TBS-T and developed using the 1-step NBT-BCIP substrate (Pierce, USA). Western Blot was imaged in the ImageQuant RT-ECL (GE Life Sciences, Piscataway, N.J.) and densitometric quantification was performed using the IMAL software (Blanchette Rockefeller Neurosciences Institute, Morgantown, W. Va.). For translocation assays, PKC activation was represented as the percentage of total protein in the membrane (membrane/cytosol+membrane).
Cells were grown in two chambered slides (Nunc, USA) at low density. For immunofluorescence staining, the cells were washed with PBS (pH 7.4) and fixed with 4% paraformaldehyde for 4 min. Following fixation, the cells were blocked and permeabilized with 5% serum and 0.3% Triton X 100 in 1×PBS for 30 min. […] Six individual fields at 63× oil lens magnification were analyzed for the mean fluorescence intensity (MFI) in each channel. […]

[4] = tested on: primary rat hippocampal neurons; assay: Neuroprotection against ASPD induced toxicity, MTT, primary neurons; type: cell-based; details: added with DCPLA-ME, 50 nM ASPD
Protocol: Viability of cells was measured by MTT assay. MTT (3-(4,5-Dimethylthiazol-2-yl)-2,5-diphenyltetrazolium bromide) is a tetrazolium salt that is cleaved to formazan by the succinate dehydrogenase, which is only active in viable cells. After solubilization of the formazan, the amount of dye can be quantified with a microplate reader at 570 nm along with a reference of 630 nm. For MTT assay, 5×104 primary rat hippocampal neurons from 18-day-old embryonic Sprague-Dawley rat brains were plated on each well of 24-well plates coated with poly-D-lysine. After treatment, the cells were washed with 1×PBS and were incubated with 200 μl of 1 mg/ml MTT solution (Sigma, USA) at 37° C. for 2 hr. Then the MTT-solution was removed and the cells were lysed with 200 μl isopropanol containing 0.04 M HCl and 160 mM NaOH for 10 min. Finally, the reading was done at 570 nm and 630 nm. All the samples were done in triplicates and the data was represented as the percentage of control.
All studies used 50 nM ASPDs. The viability of the cells were measured by the MTT assay.

PKC [5] = details: cited from earlier work
[6] = cited from earlier work
PKC-ε [7] = biological target: T3, PKC-ε (Homo sapiens, UniProt Q02156); assay: Activation of purified PKC isozymes, radiometric: PKC-ε; type: biochemical
T3 sequence (Q02156 1-737): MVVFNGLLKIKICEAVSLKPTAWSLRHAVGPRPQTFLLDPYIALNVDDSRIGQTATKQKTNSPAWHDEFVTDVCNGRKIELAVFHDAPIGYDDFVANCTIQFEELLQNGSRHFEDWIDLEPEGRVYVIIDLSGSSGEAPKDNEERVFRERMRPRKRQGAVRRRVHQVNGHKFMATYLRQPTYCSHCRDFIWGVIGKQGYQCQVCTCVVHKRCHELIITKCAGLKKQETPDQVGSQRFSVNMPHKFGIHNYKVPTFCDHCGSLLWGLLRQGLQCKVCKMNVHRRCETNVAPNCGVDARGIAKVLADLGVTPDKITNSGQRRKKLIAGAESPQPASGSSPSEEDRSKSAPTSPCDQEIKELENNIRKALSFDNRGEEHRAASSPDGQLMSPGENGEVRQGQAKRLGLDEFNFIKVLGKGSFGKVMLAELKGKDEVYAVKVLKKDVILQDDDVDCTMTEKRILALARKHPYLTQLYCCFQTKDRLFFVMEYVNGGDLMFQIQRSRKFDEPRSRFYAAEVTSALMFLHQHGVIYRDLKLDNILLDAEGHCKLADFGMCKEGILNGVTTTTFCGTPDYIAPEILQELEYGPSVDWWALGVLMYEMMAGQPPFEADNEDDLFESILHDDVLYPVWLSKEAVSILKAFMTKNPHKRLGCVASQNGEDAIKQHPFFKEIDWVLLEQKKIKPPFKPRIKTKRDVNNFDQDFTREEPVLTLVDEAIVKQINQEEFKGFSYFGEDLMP
Protocol: (§1) To measure PKC, 10 μl of cell homogenate or purified PKC isoform was incubated for 15 min at 37° C. in the presence of 10 μM histones, 4.89 mM CaCl2, 1.2 μg/μl phosphatidyl-L-serine, 0.18 μg/μl 1,2-dioctanoyl-sn-glycerol, 10 mM MgCl2, 20 mM HEPES (pH 7.4), 0.8 mM EDTA, 4 mM EGTA, 4% glycerol, 8 μg/ml aprotinin, 8 μg/ml leupeptin, and 2 mM benzamidine. [γ32P]ATP (0.5 μCi) was added and 32P-phosphoprotein formation was measured by adsorption onto phosphocellulose as described previously. See Nelson et al., J. Neurochemistry, 1995, 65: 2350-2357.
(§2) PKC activity of each compound was measured in the absence of diacylglycerol and phosphatidylserine and PKC-δ and PKC-ε were measured in the absence of added EGTA and CaCl2, as described by Kanno et al., J. Lipid Res., 2006, 47: 1146-1156. Low concentrations of Ca^2+ were needed because high Ca^2+ can interact with the PKC phosphatidylserine binding site and prevents activation. […] To determine their PKC isoform specificity, the compounds were pre-incubated with purified isoforms of PKC for five minutes and the PKC activity was measured radiometrically.
(§3) The activation and PKC isozyme specificity of DCPLA-ethyl ester was measured following the procedures in Example 1(B) and (C), except that 9 ng of the purified isozyme was used and it was pre-incubated for 5 minutes at room temperature (FIG. 3). PKC-ε activation by DCPLA-tert-butyl ester and DCPLA-retinyl ester was measured in the same manner as DCPLA-ethyl ester (FIG. 3).
The EC50 values, PKC specificity, and activation for a select number of DCPLA esters was determined (see Table 1). EC50 values were determined by measuring the lowest concentration that activates by 50% of maximum activation. […] The specificity and activation of PKC by the various esters of DCPLA were calculated from the measurements of activation of PKC isozymes.

PKC-δ = PKC-δ (Homo sapiens, UniProt Q05655); assay: Activation of purified PKC isozymes, radiometric: PKC-δ; type: biochemical
Protocol: (§4) To measure PKC activity, 10 μg of protein from either cytosol or membrane was incubated for 15 min at 37° C. in the presence of 10 μM histones, 4.89 mM CaCl2, 1.2 μg/μl phosphatidyl-L-serine, 0.18 μg/μl 1,2-dioctanoyl-sn-glycerol, 10 mM MgCl2, 20 mM HEPES (pH 7.4), 0.8 mM EDTA, 4 mM EGTA, 4% glycerol, 8 μg/ml aprotinin, 8 μg/ml leupeptin, 2 mM benzamidine, and 0.5 μCi of [γ-^32P]ATP. [^32P]Phosphoprotein formation was measured by adsorption onto phosphocellulose as described previously. See Nelson et al. (2009) J Biol Chem 284, 34514-34521. For measurements of activation by RA, PKC activity was measured in the absence of diacylglycerol (DAG) and phosphatidylserine, as described by Nelson et al. (2009) J Biol Chem 284, 34514-34521. PKC-δ and PKC-ε were measured in the absence of added EGTA and CaCl^2, as described by Kanno et al. (2006) J Lipid Res 47, 1146-1156. The enzyme was provided as a purified isozyme for in vitro experiments.
as §1, §2

PKCα [8] = biological target: T2, PKCα; assay: Activation of purified PKC isozymes, radiometric: PKC-α; type: biochemical
Protocol: as §4, §1, §2, §3

PKC [9] = details: cited from earlier work; remark: listed apart in the source

PKC-δ, sequence (Q05655 whole entry): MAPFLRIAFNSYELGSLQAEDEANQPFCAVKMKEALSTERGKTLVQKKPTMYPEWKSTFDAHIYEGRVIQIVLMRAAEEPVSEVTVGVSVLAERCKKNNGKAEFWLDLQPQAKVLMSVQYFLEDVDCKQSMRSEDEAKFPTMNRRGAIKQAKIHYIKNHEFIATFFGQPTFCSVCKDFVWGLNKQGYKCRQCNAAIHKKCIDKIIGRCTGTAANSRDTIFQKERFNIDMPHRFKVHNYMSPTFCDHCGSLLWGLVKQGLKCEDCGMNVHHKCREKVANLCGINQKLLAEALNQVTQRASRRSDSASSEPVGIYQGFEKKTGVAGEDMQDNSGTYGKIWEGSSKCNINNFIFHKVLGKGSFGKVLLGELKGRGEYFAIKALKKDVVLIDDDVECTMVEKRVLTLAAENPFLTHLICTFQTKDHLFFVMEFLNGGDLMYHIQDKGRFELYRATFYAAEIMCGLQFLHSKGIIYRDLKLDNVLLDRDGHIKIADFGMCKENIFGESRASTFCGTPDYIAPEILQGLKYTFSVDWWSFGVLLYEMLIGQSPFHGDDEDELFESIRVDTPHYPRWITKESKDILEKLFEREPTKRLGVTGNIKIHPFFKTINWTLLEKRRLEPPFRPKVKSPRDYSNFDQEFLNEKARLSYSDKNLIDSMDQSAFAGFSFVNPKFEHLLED

For `CCCCCCCCc1ccc2c3c(c[nH]c13)C[C@@H](CO)NC(=O)[C@H](C(C)C)N2C` [octylindolactam V, Octylindolactam V], the EC50 (protein kinase C) is given as 29 nM.
For `CC1=C[C@]23C(=O)[C@@H](C=C(COC(=O)c4ccccc4)[C@@H](O)[C@]2(O)[C@H]1OC(=O)c1ccccc1)[C@H]1[C@@H](C[C@H]3C)C1(C)C` [Ingenol 3,20-dibenzoate], the Ki (PKC [1]) is given as 240 nM.
For `CC1=CC[C@H](C)C(C)(C)[C@@H]1/C=C/C(C)=C/CC[C@@]1(CO)[C@H](CCCO)/C(=C(/C)C=O)CC[C@]1(C)O` [Iripallidal], the “GI50 (concentration required to inhibit growth by 50%)” value (NCI 60 cell line screen) is given as “micromolar to nanomolar range” and the Ki (PKCα [2]) is given as 75.6 nM.
In the case of EAVSLKPT, the “effect of inhibitor on PKC-ε protection by DCPLA-ME” value (PKC-ε [3]) is reported as “completely blocked” and the “effect of inhibitor peptide on neuroprotection by DCPLA-ME” value [4] is reported as “blocked DCPLA-ME's protective effect”.
For `CCCCCCCC(=O)O[C@H]1/C(=C/C(=O)OC)C[C@H]2C[C@H](CO)OC(=O)C[C@H](O)C[C@@H]3CCC[C@H](C[C@@H]4CCO[C@H](/C=C/C(C)(C)[C@]1(O)O2)O4)O3` [Analog 1], the “affinity for PKC (in words)” value (PKC [5]) is listed as “highest affinity for PKC” and the Ki (PKC [5]; read-out: PKC Affin) is listed as 0.25 nM.
In the case of `CCC/C=C/C=C/C(=O)O[C@H]1/C(=C/C(=O)OC)C[C@H]2C[C@H]([C@@H](C)O)OC(=O)C[C@H](O)C[C@@H]3C[C@H](OC(C)=O)C(C)(C)[C@](O)(C[C@@H]4C/C(=C/C(=O)OC)C[C@H](/C=C/C(C)(C)[C@]1(O)O2)O4)O3` [Bryostatin-1], the “time detectable in the blood” value ([6]; after a single injection) is given as 14 days, the “share of initial dose in the blood” value ([6]; at 100 hrs, intravenous injection) is given as 1% and the “t1/2 in the blood stream” value ([6]; blood) is given as 1 h.
In the case of `CCCCCC1CC1CC1CC1CCCCCCCC(=O)OC(C)C` (stereo not drawn) [DCPLA-isopropyl ester], the “PKC-ε activation at peak” value (PKC-ε [7]) is reported as “up to 40 % of control”, the “concentration of maximal activation” value (PKC-ε [7]) is reported as 10 nM and the “Specificity ε/α” value (PKC-ε [7]; Activation of PKC-ε ÷ activation or inhibition of PKCα at 3 × EC50) is reported as 1.4. The “effect on PKC-δ (in words)” value (PKC-δ) was “only slightly activated” and the PKC-α activation (PKCα [8]) was “up to 40 % of control”.
For `CCCCCCCC(=O)OC1C(=CC(=O)OC)CC2CC(CO)OC(=O)CC(O)CCOC(CCCc3ccc(Br)cc3)CC3CCOC(C=CC(C)(C)C1(O)O2)O3` (stereo not drawn) [bryolog 5], the Ki (PKC [5]; A-ring bryologs, read-out: affinity for PKC) is listed as 1.9 nM.
In the case of `CCC1CC1CC1CC1CC1CC1CC1CC1CC1CC1CC1CC1CCC(=O)O` (stereo not drawn) [DHA-CP6], the effective concentration (PKC [9]) is given as 10 nM.
